# Patent US6268220A, “Diagnostic method for atherosclerosis” (Washington University, priority 1996, dated 2001)
# “Also recorded” adds a separate entry of the source.
# T1: myeloperoxidase (Homo sapiens, UniProt P05164)
# T1 construct: light and heavy chains, homodimer) with H2O2, chloride and human LDL as substrate
# T1 sequence (P05164 49-745): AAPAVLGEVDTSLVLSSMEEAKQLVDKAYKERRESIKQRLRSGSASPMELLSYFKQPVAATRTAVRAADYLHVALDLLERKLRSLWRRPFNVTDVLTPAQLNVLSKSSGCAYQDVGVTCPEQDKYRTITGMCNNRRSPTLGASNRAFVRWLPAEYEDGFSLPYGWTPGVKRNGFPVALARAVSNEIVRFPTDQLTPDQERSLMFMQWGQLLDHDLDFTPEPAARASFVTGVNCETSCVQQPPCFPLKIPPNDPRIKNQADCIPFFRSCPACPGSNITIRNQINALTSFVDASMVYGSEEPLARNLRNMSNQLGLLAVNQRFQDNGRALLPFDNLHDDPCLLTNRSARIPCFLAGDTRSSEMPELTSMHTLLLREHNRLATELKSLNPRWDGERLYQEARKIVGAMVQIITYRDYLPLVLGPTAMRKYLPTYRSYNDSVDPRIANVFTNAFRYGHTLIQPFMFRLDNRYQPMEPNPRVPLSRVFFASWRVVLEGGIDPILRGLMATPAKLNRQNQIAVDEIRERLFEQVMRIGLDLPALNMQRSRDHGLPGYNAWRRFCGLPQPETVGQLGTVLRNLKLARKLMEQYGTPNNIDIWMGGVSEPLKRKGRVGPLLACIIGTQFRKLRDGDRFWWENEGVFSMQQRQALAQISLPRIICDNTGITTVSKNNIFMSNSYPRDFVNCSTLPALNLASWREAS
# B1: Catalase: a peroxide scavenger (protein, UniProt P00432 2-527, looked up)
# Catalase: ADNRDPASDQMKHWKEQRAAQKPDVLTTGGGNPVGDKLNSLTVGPRGPLLVQDVVFTDEMAHFDRERIPERVVHAKGAGAFGYFEVTHDITRYSKAKVFEHIGKRTPIAVRFSTVAGESGSADTVRDPRGFAVKFYTEDGNWDLVGNNTPIFFIRDALLFPSFIHSQKRNPQTHLKDPDMVWDFWSLRPESLHQVSFLFSDRGIPDGHRHMNGYGSHTFKLVNANGEAVYCKFHYKTDQGIKNLSVEDAARLAHEDPDYGLRDLFNAIATGNYPSWTLYIQVMTFSEAEIFPFNPFDLTKVWPHGDYPLIPVGKLVLNRNPVNYFAEVEQLAFDPSNMPPGIEPSPDKMLQGRLFAYPDTHRHRLGPNYLQIPVNCPYRARVANYQRDGPMCMMDNQGGAPNYYPNSFSAPEHQPSALEHRTHFSGDVQRFNSANDDNVTQVRTFYLKVLNEEQRKRLCENIAGHLKDAQLFIQKKAVKNFSDVHPEYGSRIQALLDKYNEEKPKNAVHTYVQHGSHLSAREKANL
# Columns and labels:
# [1] = test system: apolipoprotein B100 of LDL; assay: Production of 3-chlorotyrosine in LDL modified by different oxidation systems; format: biochemical, human; settings: 37° C.; for 3-chlorotyrosine content of LDL exposed to oxidation system: LDL 512 μg protein/ml, pH 7.4, 60 min or 24 h, FIG. 2, result in words
# Procedure: FIG. 2 show production of 3-chlorotyrosine in LDL modified by different oxidation systems. LDL (512 μg protein/ml) was incubated at 37° C. in phosphate buffered saline (10 mM sodium phosphate, 150 mM NaCl, pH 7.4) alone (Control) or with the indicated oxidation system. The complete myeloperoxidase-H2 O2 --Cl^- system consisted of 20 nM myeloperoxidase and 100 μM H2 O2. HOCl was used at 100 μM. Horseradish peroxidase (10 μg/ml and lactoperoxidase (10 μg/ml) were used with 100 μM H2 O2. LDL was exposed to myeloperoxidase, HOCl, horseradish peroxidase and lactoperoxidase for 60 min.
# All other oxidation reactions were carried out for 24 h. Final concentrations of oxidants were: peroxynitrite, 100 μM; CuSO4, 10 μM; CuSO4 and H2 O2, 100 μM and 2 mM, respectively; FeSO4, 10 μM; hemin, 10 μM; and glucose, 100 mM. LDL oxidation by lipoxygenase was performed in 50 mM borate, 150 mM NaCl supplemented with phospholipase A2 as previously described (45).
# Reaction products were delipidated, acid hydrolyzed, and the 3-chlorotyrosine content of the amino acid hydrolysate determined by stable isotope dilution GC-MS analysis. Values are the mean of duplicate determinations. […] HRP, horseradish peroxidase; MPO, myeloperoxidase-peroxidase.
# The complete system consisted of Buffer B (20 mM Na[PO4 ], pH 7.0, 100 μM DTPA) supplemented with LDL (512 μg protein/ml), myeloperoxidase (MPO; 40 nM), H2 O2 (100 μM) and Cl^- (as NaCl; 100 mM). After a 1 h incubation at 37° C., the 3-chlorotyrosine content was determined by stable isotope dilution GC-MS as described under "Methods." The limit of detection of the assay was <0.1 umol 3-chlorotyrosine per mol L-tyrosine. Values are the mean of duplicate determinations.
# [2] = test system: Human neutrophils; assay: Formation of 3-chlorotyrosine in LDL exposed to activated human phagocytes; format: cell-based; settings: FIG. 1
# Procedure: Human neutrophils (1×10^6 /ml) were incubated at 37° C. in Hank's Balanced Salt Solution supplemented with DTPA (100 μM) and LDL (512 μg protein/ml). Neutrophils were activated with phorbol ester (PMA; 200 nM) and maintained in suspensions by intermittent inversion (Complete neutrophil system).
# Following a 60 min incubation, neutrophils were removed by centrifugation. The supernatant was delipidated and dialyzed, ^13 C-labeled internal standards were added, and the samples were then subjected to acid hydrolysis. The content of L-tyrosine and 3-chlorotyrosine in acid hydrolysates were determined by stable isotope dilution GC-MS analysis as described under "Method", below.
# Additions or deletions to the complete system were as indicated. The final concentrations of additions were:
# 3-Chlorotyrosine content of LDL is normalized to the content of the precursor amino acid L-tyrosine. Values are the mean of duplicate determinations.
# (§1) General Procedures--All glassware was rendered chlorine-demand free (<3% consumption of 1 mM HOCl in a 10 min incubation at 37° C. within a gas-tight vial as monitored by the oxidation of iodide to triiodide) prior to use (12,25,27). […] Myeloperoxidase (donor: hydrogen peroxide, oxidoreductase, EC 1.11.1.7) was isolated (final A430 /A280 ratio of 0.6) as previously described (28,29). Enzyme concentration was determined spectrophotometrically ε430 =[…] cm^-1; ref. 30). Human neutrophils were isolated by buoyant density centrifugation (31). Medium A (Hank's balanced salt solution (magnesium-, calcium-, phenol- and bicarbonate-free; Gibco-BRL, Gaithersburg, Md.), pH 7.2, supplemented with 100 μM diethylenetriamine pentaacetic acid (DTPA) was used for neutrophil isolation and experiments.
# [3] = target: T1, myeloperoxidase; assay: Chlorination of apolipoprotein B100 of LDL by the myeloperoxidase-H2O2-Cl- system (3-chlorotyrosine by GC-MS); format: biochemical; settings: for 3-Chlorotyrosine/L-Tyrosine: Complete system (LDL 512 μg protein/ml, MPO 40 nM, H2O2 100 μM, Cl- 100 mM) plus additive at printed concentration, 1 h, 37° C., complete system alone 50, detection limit <0.1
# Procedure: as §1
# Following the addition of 10 pmol 3-[^13 C6 ]chlorotyrosine and 100 nmol L-[^13 C6 ]tyrosine, delipidated and dialyzed protein (~1-4 mg) suspended in Buffer B was dried under vacuum in a glass reaction vial. Each vial then received 0.5 ml HBr (6 N) containing 1% phenol. […]
# Mass Spectrometric Analysis--n-Propyl, perheptafluorobutyl (HFB) and n-propyl, perpentafluoroproprionyl (PFP) derivatives of amino acids were prepared (38) and analyzed on a Hewlett Packard 5890 Gas Chromatograph interfaced with a Hewlett Packard 5988A Mass Spectrometer equipped with extended mass range. […]
# Amino acids were quantified utilizing stable isotope dilution GC-MS analysis in the negative-ion chemical ionization mode (25,26). 3-Chlorotyrosine was monitored as its n-propyl-per-HFB derivative utilizing selected ion monitoring of the base peak at mass-to-charge ratio (m/z) 451 (M^.- -HFB), another prominent ion at m/z 629 (M^.- -HF), and their isotopically labeled internal standard ions at m/z 457 and 635, respectively.
# L-Tyrosine was monitored as its n-propyl-per-HFB derivative using the base peak at m/z 417 (M^.- -HFB), another major ion at m/z 595 (M^.- -HF), and their labeled internal standard ions at m/z 423 and 601, respectively. […]
# [4] = PMA-activated human neutrophils 1×10^6/ml, 60 min, 37° C., additive to complete neutrophil system
molecule,measurement,setting,value
"OCl [HOCl, hypochlorous acid]",3-chlorotyrosine content of LDL exposed to oxidation system,[1],resulted in 3-chlorotyrosine formation; also recorded: Significant levels
same,3-Chlorotyrosine/L-Tyrosine,"[1]; LDL + HOCl (100 μM), no enzyme, 1 h",68 umol/mol
[N-]=[N+]=[N-].[Na+] [NaN3],3-chlorotyrosine production in LDL incubated with activated phagocytes,[2]; [4],inhibited
same,3-Chlorotyrosine/L-Tyrosine,[3],0 umol/mol
"O=S(=O)([O-])[O-].[Cu+2] [copper, CuSO4]",3-chlorotyrosine content of LDL exposed to oxidation system,[1],little change
C[C@H](CCC(=O)O)C[C@H](C)C[C@H](C)C(=O)/C=C(\O)[C@H](C)C[C@H](C)C/C=C/[C@@H](C)[C@@H](O)[C@@H](C)[C@@H](O)C[C@@H]1CC[C@@](C)([C@H]2CC[C@@](C)([C@@H](C)O)O2)O1 [ionomycin],3-chlorotyrosine production in LDL incubated with activated phagocytes,[2]; ionomycin (1 μM) added together with superoxide dismutase (10 μg/ml),further generation
"O=S(=O)([O-])[O-].[Fe+2] [iron, FeSO4]",3-chlorotyrosine content of LDL exposed to oxidation system,[1],little change
O=NOO [peroxynitrite],3-chlorotyrosine content of LDL exposed to oxidation system,[1],little change
glucose,3-chlorotyrosine content of LDL exposed to oxidation system,[1],little change
horseradish peroxidase,3-chlorotyrosine content of LDL exposed to oxidation system,[1],little change
lactoperoxidase,3-chlorotyrosine content of LDL exposed to oxidation system,[1],little change
superoxide dismutase: catalyzes the conversion of O2.- into H2O2,3-chlorotyrosine production in LDL incubated with activated phagocytes,[2]; [4],further generation
B1,3-chlorotyrosine production in LDL incubated with activated phagocytes,[2]; [4],inhibited
same,3-Chlorotyrosine/L-Tyrosine,[3],0 umol/mol
same,Chlorination of apolipoprotein B100 (3-chlorotyrosine production) by myeloperoxidase-H2O2-Cl- system,"[3]; additive to complete system, result in words",blocked
